Where a name gives a salt, the structure may show the parent alone.
Key:
mast cells = test: Inhibitory effect on histamine release from sensitized rat peritoneal mast cells (DNP-As antigen challenge); type: cell-based, Wistar rats; settings: Mast cell; rat peritoneal cells passively sensitized with anti-DNP-As rat serum; compound 1 min before DNP-As; 37° C.
Method: The inhibitory effect of histamine release was examined with the under method, while using disodium cromoglycate(II), tranilast (III), and TA-5707F(IV)as reference drugs. Mixed peritoneal cells obtained from male Wistar rats weighing 350-400 g were sensitized by incubating for 2 hr at 37° C. with anti-DNP-As rat serum (produced according to the method of Tada and Okumura [Tada, T. and Okmura, K.: J. Immunology, 106,1002 (1971)]. The cell suspension containing about 1×10^5 mast cells/ml was prepared in Hepes Tyrode buffer containing heparin (10 unit/ml ) and BSA (0.3%). This suspension was divided into 0.8 ml aliquots in separate polyethylene tubes. […] After incubation at 37° C. for 1 min, 0.1 ml of DNP-As solution (50μg/ml) were added, followed by incubation at 37° C. for 2 min. The reactio was terminated by adding 2 ml of the cold buffer. The supernatants were separated by centrifugation, the cell pellets were resuspended in 3 ml buffer and placed for 3 min in the heating block (100° C.) to release the residual histamine into cells. The histamine was quantitated using the spedrofluorometric technique of modified Shore's method. The IC 50 was obtained from the dose-response curve.

[1] = cited from earlier work
[2] = Acute toxicity test (oral); settings: mouse, in vivo
Method: Male ICR mice 5 weeks old were used as 5 animals at a group. The compounds were administered orally at each dosage.

Row | SMILES | IC50 (mast cells) | further results
1 | CCCNc1cncc(C(=O)Nc2nnn[nH]2)n1 [Example 4, 6-(n-Propylamino)-N-(1H-5-tetrazolyl)pyrazine-2-carboxamide] | 17 nM | 
2 | O=C(Nc1nnn[nH]1)c1cncc(N2CCOCC2)n1 [Example 14, 6-(4-Morpholinyl)-N-(1H-5-tetrazolyl)pyrazine-2-carboxamide] | 36 nM | 
3 | CN1CCN(c2cncc(C(=O)Nc3nnn[nH]3)n2)CC1 [Example 15, 6-(4-Methyl-1-piperazinyl)-N-(1H-5-tetrazolyl)pyrazine-2-carboxamide hydrochloride hydrate] | 36 nM | 
4 | CCN(CC)c1cncc(C(=O)Nc2nnn[nH]2)n1 [Example 7, 6-(Diethylamino)-N-(1H-5-tetrazolyl)pyrazine-2-carboxamide] | 15 nM | 
5 | O=C(Nc1nnn[nH]1)c1cncc(N2CCCCC2)n1 [Example 9, 6-(1-Piperidinyl)-N-(1H-5-tetrazolyl)pyrazine-2-carboxamide] | 5.6 nM | 
6 | CNc1cncc(C(=O)Nc2nnn[nH]2)n1 [Example 2, 6-(Methylamino)-N-(1H-5-tetrazolyl)pyrazine-2-carboxamide] | 2.5 nM | 
7 | O=C(O)c1cc(=O)c2c(OCC(O)COc3cccc4oc(C(=O)O)cc(=O)c34)cccc2o1 [disodium cromoglycate (II), disodium cromoglycate, reference compound] | 190 nM | physical discomfort in the throat ([1]; human, in vivo): feeling of physical discomfort in the throat
8 | O=C(Nc1nnn[nH]1)c1cncc(Nc2ccccc2)n1 [Example 16, 6-(Phenylamino)-N-(1H-5-tetrazolyl)pyrazine-2-carboxamide] | 0.062 nM | 
9 | O=C(Nc1nnn[nH]1)c1cncc(N2CCCC2)n1 [Example 8 (free), 6-(1-Pyrrolidinyl)-N-(1H-5-tetrazolyl)pyrazine-2-carboxamide] | 1.2 nM | LD50 ([2]; male ICR mice 5 weeks old, oral): > 2000 mg/kg
10 | O=C(Nc1nnn[nH]1)c1cncc(N2CCCC2)n1.[Na] |  | LD50 ([2]; po): > 2000 mg/kg
11 | CC(C)Nc1cncc(C(=O)Nc2nnn[nH]2)n1 [Example 5, 6-(Isopropylamino)-N-(1H-5-tetrazolyl)pyrazine-2-carboxamide] | 5 nM | 
12 | CN(C)c1cncc(C(=O)Nc2nnn[nH]2)n1 [Example 6, 6-(Dimethylamino)-N-(1H-5-tetrazolyl)pyrazine-2-carboxamide] | 0.47 nM | 
13 | Cc1cccc(C(=O)Nc2nnn[nH]2)n1 [TA-5707F (IV), 6-methyl-N-(1H-5-tetrazolyl) pyridine-2-carboxamide, reference compound] | 46 nM | 
14 | COc1ccc(/C=C/C(=O)Nc2ccccc2C(=O)O)cc1OC [tranilast (III), tranilast, reference compound] | 24000 nM | side effects in the digestive system ([1]; daily dosage about 300 mg, oral): nausea, abdominal pain, and gastric discomfort
15 | CCNc1cncc(C(=O)Nc2nnn[nH]2)n1 [Example 3, 6-(Ethylamino)-N-(1H-5-tetrazolyl)pyrazine-2-carboxamide] | 2 nM | 

Source: patent publication US4792547A, “Pyrazine-2-carboxamide derivatives useful in treating allergic disease” (priority 1985, dated 1988)
